Source: US20090143285A1, “TARGET PROTEIN AND TARGET GENE FOR DRUG DISCOVERY AND SCREENING METHOD” (REVERSE PROTEOMICS RESEARCH INSTITUTE CO., LTD., priority 2005, published 2009)
Entries after “also recorded” stand apart in the source; their conditions may differ.

Test system: FLJXXXXX-derived proteins
Experiment: SEC/MS spin column interaction analysis of FLJXXXXX-derived proteins and various compounds (Tables 30-1 to 30-4)
Assay type: binding, human
Details: not given

SMILES	FLJ No of the derived protein with which the compound was judged to exhibit a concentration-dependent interaction
CCCSc1ccc2nc(NC(=O)OC)[nH]c2c1 [albendazole]	FLJ35353

Same assay, conditions: SEC spin column filtrate, spectral intensity increased with doses of compound and protein

SMILES	FLJ No of the derived protein with which the compound was judged to exhibit a concentration-dependent interaction
Cl.Cl.OCCN1CCN(CCC=C2c3ccccc3Sc3ccc(C(F)(F)F)cc32)CC1 (mixture of isomers) [flupentixol]	FLJ37909
c1ccc2c(c1)CCCc1cc(NCCN3CCOCC3)nnc1-2 [SR-95639A]	FLJ36526
CC(=O)c1ccc2c(c1)N(CCCN(C)C)c1ccccc1S2 [acetopromazine]	FLJ36526
CC(CN(C)C)CN1c2ccccc2Sc2ccccc21 (centres unmarked) [alimemazine]	FLJ37909
NCC[C@H](O)C(=O)N[C@@H]1C[C@H](N)[C@@H](O[C@H]2O[C@H](CN)[C@@H](O)[C@H](O)[C@H]2O)[C@H](O)[C@H]1O[C@H]1O[C@H](CO)[C@@H](O)[C@H](N)[C@H]1O [amikacin]	FLJ37909
CCCCc1oc2ccccc2c1C(=O)c1cc(I)c(OCCN(CC)CC)c(I)c1 [amiodarone]	FLJ37909
O=c1cc(-c2ccc(O)cc2)oc2cc(O)cc(O)c12 [apigenin]	FLJ39553
CCC(C)C1O[C@]2(C=C[C@@H]1C)C[C@@H]1CC(C/C=C(\C)[C@@H](OC3C[C@H](OC)[C@@H](OC4C[C@H](OC)[C@@H](O)[C@H](C)O4)[C@H](C)O3)[C@@H](C)/C=C/C=C3\COC4[C@H](O)C(C)=CC(C(=O)O1)[C@]34O)O2 (some centres unmarked) [avermectin B1A]	FLJ39553
COc1c(O)cc2c(c1O)[C@@H]1O[C@H](CO)[C@@H](O)[C@H](O)[C@H]1OC2=O [bergenin]	FLJ39553
CCCCC[C@](C)(O)/C=C/[C@@H]1[C@@H](C/C=C\CCCC(=O)O)[C@@H](O)C[C@H]1O [carboprost]	FLJ39553
O=C(O)CCCc1ccc(N(CCCl)CCCl)cc1 [chlorambucil]	FLJ23466
[H]/N=C(\N/C(=N/[H])NCCCCCCNC(=N)NC(=N)Nc1ccc(Cl)cc1)Nc1ccc(Cl)cc1 [chlorhexidine]	FLJ37909
CN(C)CCCN1c2ccccc2Sc2ccc(Cl)cc21 [chlorpromazine]	FLJ35353
C=C[C@H]1C[N@@]2CC[C@H]1C[C@@H]2[C@@H](O)c1ccnc2ccccc12 [cinchonine]	FLJ39553
CN1C(=O)CC(=O)N(c2ccccc2)c2cc(Cl)ccc21 [clobazam]	FLJ35353
CC(C)/N=c1\cc2n(-c3ccc(Cl)cc3)c3ccccc3nc-2cc1Nc1ccc(Cl)cc1 [clofazimine]	FLJ35353
CCN(CC)CCOc1ccc(C(=C(Cl)c2ccccc2)c2ccccc2)cc1 [clomiphene]	FLJ37909
CN(C)[C@@H]1C(O)=C(C(N)=O)C(=O)[C@@]2(O)C(O)=C3C(=O)c4c(O)ccc(Cl)c4[C@@H](O)[C@H]3C[C@@H]12 [demeclocycline]	FLJ39553
CC(C)[C@@]1(NC(=O)[C@@H]2C[C@@H]3c4cccc5[nH]cc(c45)C[C@H]3N(C)C2)O[C@@]2(O)[C@@H]3CCCN3C(=O)[C@H](Cc3ccccc3)N2C1=O [dihydroergocristine]	FLJ37909
CN1C[C@H](C(=O)N[C@]2(C)O[C@@]3(O)[C@@H]4CCCN4C(=O)[C@H](Cc4ccccc4)N3C2=O)C[C@@H]2c3cccc4[nH]cc(c34)C[C@H]21 [dihydroergotamine]	FLJ37909
C[N+]1(C)CCC(=C(c2ccccc2)c2ccccc2)CC1 [diphemanil]	FLJ36526
Cc1c(N(C)CS(=O)(=O)[O-])c(=O)n(-c2ccccc2)n1C.[Na+] [dipyrone]	FLJ35353
O=c1[nH]c2ccccc2n1CCCN1CCC(n2c(=O)[nH]c3cc(Cl)ccc32)CC1 [domperidone]	FLJ20571
COc1cc2nc(N3CCN(C(=O)C4COc5ccccc5O4)CC3)nc(N)c2cc1OC (centres unmarked) [doxazosin]	FLJ37909
CC(=O)[C@H]1CC[C@H]2[C@@H]3C=CC4=CC(=O)CC[C@@]4(C)[C@@H]3CC[C@]12C [dydrogesterone]	FLJ35353
Cc1c2ccncc2c(C)c2c1[nH]c1ccccc12 [ellipticine]	FLJ35353
CC[C@H]1CN2CCc3cc(OC)c(OC)cc3[C@@H]2C[C@@H]1C[C@H]1NCCc2cc(OC)c(OC)cc21 [emetine]	FLJ37909
CCN1C(=O)NC(c2ccccc2)C1=O (centres unmarked) [ethotoin]	FLJ38531

SMILES	FLJ No of the derived protein with which the compound was judged to exhibit a concentration-dependent interaction
CCOC(=O)C1N=C(c2ccccc2F)c2cc(Cl)ccc2NC1=O (centres unmarked) [ethyl loflazepate]	FLJ35353
COC(=O)Nc1nc2ccc(Sc3ccccc3)cc2[nH]1 [fenbendazole]	FLJ37909
CC1CCc2cc(F)cc3c(=O)c(C(=O)O)cn1c23 (centres unmarked) [flumequine]	FLJ38531
Fc1ccc(C(c2ccc(F)cc2)N2CCN(C/C=C/c3ccccc3)CC2)cc1 [flunarizine]	FLJ37909
Cc1cnc(C(=O)NCCc2ccc(S(=O)(=O)NC(=O)NC3CCCCC3)cc2)cn1 [glipizide]	FLJ35353
COc1ccc2c3c([nH]c2c1)C(C)=NCC3 [harmaline]	FLJ39553
O=C1CNC(=O)N1 [hydantoin]	FLJ35914
CC(=O)[C@@]1(O)CC[C@H]2[C@@H]3CCC4=CC(=O)CC[C@]4(C)[C@H]3CC[C@@]21C [hydroxyprogesterone]	FLJ37909
Cc1cccc(C)c1NC(=O)CN1CCN(CCCC(c2ccc(F)cc2)c2ccc(F)cc2)CC1 [lidoflazine]	FLJ37909
NCCCC[C@H](N[C@@H](CCc1ccccc1)C(=O)O)C(=O)N1CCC[C@H]1C(=O)O [lisinopril]	FLJ40760
NCc1ccc(S(N)(=O)=O)cc1 [mafenide]	FLJ21841
Cc1cccc(Nc2ccccc2C(=O)O)c1C [mefenamic acid]	FLJ35353
CN1CCCCC1CCN1c2ccccc2Sc2ccc([S+](C)[O-])cc21 (centres unmarked) [mesoridazine]	FLJ11211
CN1C[C@H](CNC(=O)OCc2ccccc2)C[C@@H]2c3cccc4c3c(cn4C)C[C@H]21 [metergoline]	FLJ37909
CN1CCCC(CC2c3ccccc3Sc3ccccc32)C1 (centres unmarked) [methixene]	FLJ35353
COc1ccc2[nH]c3c(c2c1)CCN=C3C [methoxy-6-harmalan]	FLJ39553
Cc1cc(C(C)(C)CC(C)(C)C)ccc1OCCOCC[N+](C)(C)Cc1ccccc1.[Cl-] [methylbenzethonium chloride]	FLJ20571; also recorded: FLJ35353
Cc1cc2c(cc1S(N)(=O)=O)S(=O)(=O)CCC2 [meticrane]	FLJ39553
CC#C[C@]1(O)CC[C@H]2[C@@H]3CCC4=CC(=O)CCC4=C3[C@@H](c3ccc(N(C)C)cc3)C[C@@]21C [mifepristone]	FLJ22317
CCOc1ccc2ccccc2c1C(=O)N[C@@H]1C(=O)N2[C@@H]1SC(C)(C)[C@@H]2C(=O)O [nafcillin]	FLJ39553
CC1CCCC(C)N1 (stereo not drawn) [nanofin (cis), nanofin]	FLJ42665
O=C1CN=C(c2ccccc2)c2cc(Cl)ccc2N1 [nordiazepam]	FLJ35353
CN(C(=O)CN(CCO)CC(=O)N(C)C(C)(C)Cc1ccccc1)C(C)(C)Cc1ccccc1 [oxethazaine]	FLJ37909
CCn1cc(C(=O)O)c(=O)c2cc3c(cc21)OCO3 [oxolinic acid]	FLJ37909
CC(=O)O[C@H]1C(=O)[C@@]2(C)[C@H]([C@H](OC(=O)c3ccccc3)[C@]3(O)C[C@H](OC(=O)[C@H](O)[C@@H](NC(=O)c4ccccc4)c4ccccc4)C(C)=C1C3(C)C)[C@]1(OC(C)=O)CO[C@@H]1C[C@@H]2O [paclitaxel]	FLJ39553
COc1cc2c(cc1OC)-c1cc3ccc(OC)c(OC)c3c[n+]1CC2 [palmatine]	FLJ39553
C[C@@H]1C[C@H]2[C@@H]3C[C@H](F)C4=CC(=O)C=C[C@]4(C)[C@H]3[C@@H](O)C[C@]2(C)[C@@]1(O)C(=O)CO [paramethasone]	FLJ39553
